Reference: US20110028447A1, “INDAZOLE DERIVATIVES” (Pfizer Inc., priority 2008, published 2011)
Like-named read-outs stand apart in the source and are kept apart here.

How the values were obtained:
[1] = target: T1, human CB1 receptor (Homo sapiens, UniProt P21554); experiment: [35S] GTPγS binding on membranes of CHO cells expressing the human CB1 receptor (agonism); type: biochemical; parameters: expressed in transfected cells; membrane preparation
Method in brief: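 Membranes from human CB1-expressing CHO cells (5 μg/well) incubated with test compound and [35S]GTPγS in 50 mM Tris pH 7.4, 100 mM NaCl, 3 mM MgCl2, 0.2 mM EGTA, 0.04% BSA for 45 min at 37 °C. Bound label collected by filtration, scintillation counted; EC50 from curve fits.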

[2] = target: T1, human CB1 receptor; experiment: Human CB1 receptor binding, [3H] CP-55,940 displacement on HEK cell membranes; parameters: expressed in transfected cells; host or cells: HEK cells, doxycycline-induced; membrane preparation
Method in brief: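 Radioligand displacement: [3H] CP-55,940 at […] final, 1 μg membrane protein per well from HEK cells with tetracycline-inducible human CB1, 60 min at room temperature, pH 7.4 Tris/NaCl/MgCl2/EGTA/BSA buffer. 50 μM WIN-55,212-2 set nonspecific binding; bound label filtered, counted, and fitted for EC50 and Ki values.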

[3] = GTPγS EC50, human CB1, CHO cell membranes
[4] = human CB1, CHO cell membranes, read-out: GTPγS EC50

T1 sequence (P21554 whole entry): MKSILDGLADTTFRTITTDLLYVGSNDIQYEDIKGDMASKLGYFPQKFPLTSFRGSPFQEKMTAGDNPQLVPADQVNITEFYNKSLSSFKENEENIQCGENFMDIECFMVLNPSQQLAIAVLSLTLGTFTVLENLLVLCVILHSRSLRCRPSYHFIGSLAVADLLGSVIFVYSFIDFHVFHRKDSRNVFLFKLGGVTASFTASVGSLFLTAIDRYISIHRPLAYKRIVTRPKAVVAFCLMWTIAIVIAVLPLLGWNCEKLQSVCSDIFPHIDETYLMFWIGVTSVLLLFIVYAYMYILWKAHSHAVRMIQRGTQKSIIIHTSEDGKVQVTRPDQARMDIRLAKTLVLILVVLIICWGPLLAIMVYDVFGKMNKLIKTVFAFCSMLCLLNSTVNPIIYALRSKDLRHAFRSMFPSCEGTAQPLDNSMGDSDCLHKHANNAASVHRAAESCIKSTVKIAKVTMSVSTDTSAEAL

Row | Compound | EC50 [1, 3] [nM] | Ki ([2]; CB1 Ki) [nM] | EC50 [1, 4] [nM] | Ki ([2]; read-out: CB1 Ki) [nM]
1 | CC(C)(C)[C@H](NC(=O)c1nn(Cc2ccc(F)cc2)c2c(F)cccc12)C(=O)NCCC(N)=O [Example 476] | 31.4 | 6.48 | – | –
2 | CC(=O)N1CCC(NC(=O)[C@@H](NC(=O)c2nn(Cc3ccc(F)cc3)c3ccccc23)C(C)(C)C)C1 (stereo partly shown) [Example 320] | – | – | 63.2 | 12
3 | Cc1noc(CNC(=O)C(NC(=O)c2nn(Cc3ccc(F)cc3)c3ccccc23)C(C)(C)C)n1 (stereo not shown) [Example 139] | 6.36 | 0.82 | – | –
4 | CC(C)(C)[C@H](NC(=O)c1nn(Cc2ccc(F)cc2)c2ccccc12)C(=O)N1CC(CNC(N)=O)C1 [Example 346] | – | – | 12.1 | 5.14
5 | NC(=O)[C@@H](NC(=O)c1nn(Cc2ccc(F)cc2)c2ccccc12)c1ccccc1 [Example 3, N-[(1S)-2-amino-2-oxo-1-phenylethyl]-1-(4-fluorobenzyl)-1H-indazole-3-carboxamide] | 298 | 49.9 | – | –
6 | CC(C)(C)[C@H](NC(=O)c1nn(Cc2ccc(F)cc2)c2ccccc12)C(=O)NCC(=O)NCCO [Example 376] | 4.4 | 1.52 | – | –
7 | CC(C)(C)C(NC(=O)c1nn(Cc2ccc(F)cc2)c2ccc(F)cc12)C(N)=O (stereo not shown) [Example 170] | 0.7 | 0.27 | – | –
8 | COC(=O)[C@@H](NC(=O)c1nn(Cc2ccccc2)c2ccccc12)C(C)(C)C [Example 38] | 2.42 | 0.14 | – | –
9 | Cc1nnc(CNC(=O)[C@@H](NC(=O)c2nn(Cc3ccc(C#N)cc3)c3ccccc23)C(C)(C)C)o1 [Example 127] | 136 | 32.8 | – | –
10 | CC(C)(C)[C@H](NC(=O)c1nn(Cc2ccc(C#N)cc2)c2c(F)cccc12)C(=O)N[C@@H](CO)c1ccccc1 [Example 215] | – | – | 41.3 | 7.69
11 | CC(C)(C)[C@H](NC(=O)c1nn(Cc2ccc(F)cc2)c2ccccc12)C(=O)NCc1cnn(-c2ccccc2)n1 [Example 427] | – | – | 50.5 | 15
12 | CC(C)(C)[C@H](NC(=O)c1nn(Cc2ccc(F)cc2)c2ccccc12)C(=O)NCCc1n[nH]c(=O)[nH]1 [Example 506] | – | – | 8.97 | 1.3
13 | CC(C)(C)[C@H](NC(=O)c1nn(Cc2ccc(F)cc2)c2ccccc12)C(=O)NCCc1cnccn1 [Example 482] | – | – | 22.2 | 12.1
14 | CC(C)(C)[C@H](NC(=O)c1nn(Cc2ccc(F)cc2)c2ccccc12)C(=O)NC[C@H]1C[C@@H]1CO [Example 488] | 21.4 | 5.61 | – | –
15 | CC(C)(C)[C@H](NC(=O)c1nn(Cc2ccc(F)cc2)c2ccccc12)C(=O)N1CCN(CC(N)=O)CC1 [Example 262] | – | – | 38.9 | 8.25
16 | CC(C)(C)C(NC(=O)c1nn(Cc2ccc(C#N)cc2)c2ccccc12)C(=O)NCc1nnc(C(N)=O)o1 (stereo not shown) [Example 130] | – | – | 72.7 | 14.7
17 | COC(=O)[C@H](CO)NC(=O)[C@@H](NC(=O)c1nn(Cc2ccc(F)cc2)c2ccccc12)C(C)(C)C [Example 236] | 3.91 | 0.94 | – | –
18 | CC(C)(C)[C@H](NC(=O)c1nn(Cc2ccc(F)cc2)c2ccccc12)C(=O)N1CC(F)C1 [Example 336] | 0.52 | 0.11 | – | –
19 | CC(C)(C)[C@H](NC(=O)c1nn(Cc2ccccc2)c2cc(-c3cccnc3)ccc12)C(N)=O [Example 45] | – | – | 21.4 | 8.79
20 | CC(C)(C)[C@H](NC(=O)c1nn(Cc2ccc(F)cc2)c2c(F)c(F)ccc12)C(=O)NC[C@H](O)CO [Example 323] | 22.5 | 2.99 | – | –
21 | CC(C)(C)[C@H](NC(=O)c1nn(Cc2ccc(C#N)cc2)c2c(F)cccc12)C(=O)N1CC(O)C1 [Example 214] | 23.4 | 3.87 | – | –
22 | CC(C)(C)[C@H](NC(=O)c1nn(Cc2ccc(F)cc2)c2c(F)c(F)ccc12)C(=O)NCCS(N)(=O)=O [Example 327] | 18.1 | 4.19 | – | –
23 | CC(C)(C)[C@H](NC(=O)c1nn(Cc2ccc(F)cc2)c2ccccc12)C(=O)NCCNc1ccccn1 [Example 480] | – | – | 42.6 | 15.3
24 | CC(C)(C)C(NC(=O)c1nn(Cc2ccc(F)cc2)c2ccccc12)C(=O)NC1CC1 (stereo not shown) [Example 80] | 1.82 | 0.21 | – | –
25 | Cc1cc2c(C(=O)N[C@H](C(=O)NCc3nnc(C(N)=O)o3)C(C)(C)C)nn(Cc3ccc(F)cc3)c2cc1F [Example 508] | – | – | 16.2 | 2.71
26 | CC(C)(C)[C@H](NC(=O)c1nn(Cc2ccc(F)cc2)c2ccccc12)C(=O)N1CC[C@H]1C(N)=O [Example 344] | 60.2 | 10.1 | – | –
27 | CC(C)(C)[C@H](NC(=O)c1nn(Cc2ccc(C#N)cc2)c2cc(F)ccc12)C(=O)NCCO [Example 295] | 64.3 | 9.17 | – | –

Row | Compound | EC50 [1, 3] [nM] | Ki ([2]; CB1 Ki) [nM] | EC50 [1, 4] [nM] | Ki ([2]; read-out: CB1 Ki) [nM]
28 | CC(C)NS(=O)(=O)CCNC(=O)[C@@H](NC(=O)c1nn(Cc2ccc(F)cc2)c2ccccc12)C(C)(C)C [Example 395] | – | – | 30.8 | 41.2
29 | CC(C)(C)C(NC(=O)c1nn(Cc2ccc(C#N)cc2F)c2ccccc12)c1nnc(N)o1 (stereo not shown) [Example 95] | – | – | 13.7 | 2.22
30 | CC(C)(C)[C@H](NC(=O)c1nn(Cc2ccc(F)cc2)c2ccccc12)C(=O)N1CCC(C#N)CC1 [Example 335] | 14.9 | 3.21 | – | –
31 | Cn1cc(CNC(=O)[C@@H](NC(=O)c2nn(Cc3ccc(F)cc3)c3ccccc23)C(C)(C)C)cn1 [Example 423] | 30.8 | 5.19 | – | –
32 | CC(C)(C)C(NC(=O)c1nn(Cc2ccc(C#N)cc2F)c2ccccc12)C(=O)NCCCO (stereo not shown) [Example 93] | 41.8 | 14.3 | – | –
33 | CC(C)(C)C(NC(=O)c1nn(Cc2ccccc2)c2ccc(-c3ncco3)cc12)C(N)=O (stereo not shown) [Example 35] | – | – | 271 | 35.3
34 | CC(C)(C)[C@H](NC(=O)c1nn(Cc2ccc(F)cc2)c2ccccc12)C(=O)NC[C@H]1CCCC[C@@H]1O [Example 253] | – | – | 26 | 4.5
35 | CC(C)(C)[C@H](NC(=O)c1nn(Cc2ccc(C#N)cc2)c2ccccc12)C(=O)NCC(F)(F)F [Example 308] | 5.55 | 2.63 | – | –
36 | CC(C)(C)[C@H](NC(=O)c1nn(Cc2ccc(F)cc2)c2ccccc12)C(=O)NCC1CCC(=O)N1 (stereo partly shown) [Example 404] | 38.2 | 13.1 | – | –
37 | CC(C)(C)C(NC(=O)c1nn(Cc2ccc(F)cc2)c2c(F)cccc12)C(=O)NCc1nnc(C(N)=O)o1 (stereo not shown) [Example 180] | – | – | 3.81 | 0.37
38 | CC(C)(C)[C@H](NC(=O)c1nn(Cc2ccc(F)cc2)c2c(F)cccc12)C(=O)NCCS(N)(=O)=O [Example 348] | 19.7 | 7.83 | – | –
39 | CC(C)(C)[C@H](NC(=O)c1nn(Cc2ccc(F)cc2)c2ccccc12)C(=O)N1C[C@@H](O)[C@H](O)C1 [Example 247] | 0.95 | 0.65 | – | –
40 | CC(C)(C)[C@H](NC(=O)c1nn(Cc2ccc(F)cc2)c2ccccc12)C(=O)N[C@H]1CC[C@@H](O)C1 [Example 288] | 9.53 | 1.18 | – | –
41 | CC(C)(C)C(NC(=O)c1nn(Cc2ccc(F)cc2)c2ccccc12)C(=O)NCCN1CCOCC1 (stereo not shown) [Example 141] | – | – | 41.1 | 9.42
42 | CCOC(=O)c1nnc(CNC(=O)[C@@H](NC(=O)c2nn(Cc3ccc(F)cc3)c3ccccc23)C(C)(C)C)o1 [Example 128] | – | – | 3.58 | 0.97
43 | CC(C)(C)[C@H](NC(=O)c1nn(Cc2ccc(C#N)cc2)c2cc(F)ccc12)C(=O)NC1CC1 [Example 299] | 23.8 | 8.56 | – | –
44 | CC(C)(C)C(NC(=O)c1nn(Cc2ccc(F)cc2)c2c(Cl)cccc12)C(N)=O (stereo not shown) [Example 181] | 0.33 | 0.1 | – | –
45 | CC(C)(C)[C@H](NC(=O)c1nn(Cc2ccc(F)cc2)c2ccccc12)C(=O)NCc1cc(C2CCC2)[nH]n1 [Example 420] | – | – | 43.7 | 11.2
46 | CC(C)(C)C(NC(=O)c1nn(Cc2ccc(F)cc2)c2ccccc12)C(=O)N1CCC(O)C1 (stereo not shown) [Example 151] | 6.3 | 1.63 | – | –
47 | CC(C)(C)[C@H](NC(=O)c1nn(Cc2ccc(F)cc2)c2ccccc12)C(=O)N1CCN(CC(O)CO)CC1 (stereo partly shown) [Example 233] | – | – | 11.5 | 2.45
48 | CC(C)(C)[C@H](NC(=O)c1nn(Cc2ccc(F)cc2)c2ccccc12)C(=O)NCC(=O)Nc1cnoc1 [Example 518] | – | – | 13.6 | 1.8
49 | CC(C)(C)C(NC(=O)c1nn(Cc2ccccc2C#N)c2ccccc12)C(N)=O (stereo not shown) [Example 30] | 78.9 | 9.22 | – | –
50 | Cc1cc(NC(=O)[C@@H](NC(=O)c2nn(Cc3ccc(F)cc3)c3ccccc23)C(C)(C)C)sn1 [Example 514] | 33.3 | 3.03 | – | –
51 | CC(C)(C)C(NC(=O)c1nn(Cc2ccc(C#N)cc2F)c2ccccc12)C(=O)NC1CC1 (stereo not shown) [Example 87] | 46.1 | 2.26 | – | –
52 | CC(C)(C)[C@H](NC(=O)c1nn(Cc2ccc(C#N)cc2)c2ccccc12)C(=O)NCCNS(=O)(=O)c1ccc(C#N)cc1 [Example 264] | – | – | 103 | 6.75
53 | CC(C)(C)[C@H](NC(=O)c1nn(Cc2ccc(F)cc2)c2ccccc12)C(=O)NCc1nnc(C(N)=O)o1 [Example 11, N-{(1S)-1-[({[5-(aminocarbonyl)-1,3,4-oxadiazol-2-yl]methyl}amino)carbonyl]-2,2-dimethylpropyl}-1-(4-fluorobenzyl)-1H-indazole-3-carboxamide] | – | – | 0.55 | 0.29
